Laboratory results from patent US20230255953A1, “USE OF ROLUPERIDONE IN PREVENTING RELAPSE IN SCHIZOPHRENIA PATIENTS” (Minerva Neurosciences, Inc., priority 2022, published 2023).

Legend:
[1] = tested on: patients with negative symptoms of schizophrenia; test: Integrated analysis (pooled ITT): PSP Total score; assay type: in vivo, human; set-up: key to PSP Total score, LS mean change from Baseline compared with placebo / PSP Total Score change from Baseline, Median: change in PSP Total score (scale 1-100, higher = better functioning); conditions: for PSP Total Score change from Baseline, LS mean (SE) / PSP Total Score change from Baseline, Mean (SD) / PSP Total Score change from Baseline, Median / PSP Total Score, Difference (95% CI) in LS mean (vs placebo): DB; for PSP Total Score change from Baseline, LS mean (SE) / PSP Total Score change from Baseline, Mean (SD) / PSP Total Score change from Baseline, Median / PSP Total Score, Difference (95% CI) in LS mean (vs placebo) / PSP Total score, LS mean change from Baseline compared with placebo: pooled ITT; for PSP Domain Disturbing and Aggressive Behavior, Change from Baseline (LS Means [SEM]) / PSP Domain Personal and Social Relationships, Change from Baseline (LS Means [SEM]) / PSP Domain Self-Care, Change from Baseline (LS Means [SEM]) / PSP Domain Socially Useful Activities, Change from Baseline (LS Means [SEM]) / PSP Total Score, Change from Baseline (LS Means [SEM]): ITT; for Patients with high improvement in PSP Total score (magnitude of change ≥10) / Patients with moderate improvement in PSP Total score (magnitude of change 7-9) / Patients with moderate or high improvement in PSP Total score, total: pooled; for Patients with 7-Point Improvement in PSP Total Score at Week 12, percent / Number of Patients with 7-Point improvement in PSP Total Score at Week 12: responder analysis; for Number of Patients with 7-Point improvement in PSP Total Score at Week 12: n/N
Description: The primary integrated analysis of the efficacy of Roluperidone compared with placebo for the treatment of negative symptoms of schizophrenia is based on the change from Baseline in the PANSS Marder's negative symptoms factor score (in this document referred to as NSFS) to Week 12. Efficacy is also supported by the analysis of change from Baseline in the PSP Total score and the CGI-S to Week 12.
The PSP is a validated clinician-rated scale intended to reflect real-life situations that measures personal and social functioning in 4 domains: (a) socially useful activities, (b) personal and social relationships, (c) self-care, and (d) disturbing and aggressive behaviors. The score is based on the assessment of a patient's performance in the 4 domains. The PSP Total score is a single measurement of functioning ranging from 1 to 100, where a higher score represents better functioning. A score of 91 to 100 indicates excellent functioning in all 4 main areas; the patient is held in high consideration for their good qualities, copes adequately with life problems, and is involved in a wide range of interests and activities. A score of 1 to 10 indicates a lack of autonomy in basic functioning with extreme behaviors but without survival risk (score 6 to 10) or with survival risk (score 1 to 5). […] Review of the relevant scientific literature and the analysis of the psychometric properties of the 4 domains that result in the generation of the PSP Total score were supportive of the appropriateness and cross-cultural applicability of the use of the PSP in drug development for the indication of negative symptoms of schizophrenia The PSP was assessed at the timepoints described in Table 6. The changes from Baseline in the PSP Total score and individual domain scores after 12 weeks of treatment were exploratory efficacy endpoints in Study MIN-101C03, and the Total score was the key secondary efficacy endpoint and the PSP domain scores were exploratory endpoints in Study MIN-101C07.
The Efficacy data from Study Nos. 1 and 2 were pooled. The majority of patients in the pooled ITT population completed the DB period (502 patients overall, 66.3%), with similar rates in each treatment group (placebo: 69.8%, 32 mg Roluperidone: 65.3%, and 64 mg Roluperidone: 63.8%) (Table 12). The majority (62.7%) of those who completed the DB period entered the OL period. The most common reason for discontinuation during the DB period among patients overall was withdrawal of consent (15.6%), followed by adverse events (7.3%) and lack of efficacy (5.4%) (Table 12). […] Approximately twice as many patients in the Roluperidone groups (32 mg: 8.5%; 64 mg: 9.1%) discontinued due to adverse events compared with patients in the placebo group (4.3%). More patients in the placebo group discontinued due to lack of efficacy (6.7%) than in the Roluperidone groups (32 mg: 4.4%; 64 mg: 5.1%). The low number of patients who discontinued due to lack of efficacy or withdrawal of consent probably reflects a low level of worsening of positive symptoms.
The integrated analysis supporting the efficacy of Roluperidone as a treatment for the negative symptoms of schizophrenia in adults is presented below.

cholinergic receptors = conditions: background statement; cited from earlier work

With “1H-Isoindol-1-one,2-[ [1-[2-(4-fluorophenyl)-2-oxoethyl]-4-piperidinyl]methyl]-2,3-dihydro-, hydrochloride, hydrate (1:1:2) [Roluperidone]” the “PSP Total Score change from Baseline, LS mean (SE)” value (“PSP Total Score change … (SE)” below) ([1]; 32 mg, Week 4) was 1.6 (0.52), the “PSP Total Score change from Baseline, Mean (SD)” value (“PSP Total Score change … (SD)” for short) ([1]; 32 mg, Week 4) was 1.5 (7.87) and the “PSP Total Score change from Baseline, Median” value ([1]; 32 mg, Week 4) was 0.0. The “PSP Total Score, Difference (95% CI) in LS mean (vs placebo)” value (“PSP Total Score, Difference (95% CI)” below) ([1]; 32 mg, Week 4) was 0.7, the “PSP Total Score change … (SE)” value ([1]; 32 mg, Week 8) was 2.9 (0.62) and the “PSP Total Score change … (SD)” value ([1]; 32 mg, Week 8) was 3.6 (7.04). The “PSP Total Score change from Baseline, Median” value ([1]; 32 mg, Week 8) was 2.0, the “PSP Total Score, Difference (95% CI)” value ([1]; 32 mg, Week 8) was 0.6 and the “PSP Total Score change … (SE)” value ([1]; 32 mg, Week 12) was 3.3 (0.71). For the same substance, the “PSP Total Score change … (SD)” value ([1]; 32 mg, Week 12) was 3.5 (10.03), the “PSP Total Score change from Baseline, Median” value ([1]; 32 mg, Week 12) was 2.0 and the “PSP Total Score, Difference (95% CI)” value ([1]; 32 mg, Week 12) was 0.5. For the same substance, the “PSP Domain Disturbing and Aggressive Behavior, Change from Baseline (LS Means [SEM])” value ([1]; 32 mg, Week 12) was −0.1 (0.04), the “PSP Domain Personal and Social Relationships, Change from Baseline (LS Means [SEM])” value ([1]; 32 mg, Week 12) was −0.3 (0.05) and the “PSP Domain Self-Care, Change from Baseline (LS Means [SEM])” value ([1]; 32 mg, Week 12) was −0.3 (0.05). The “PSP Domain Socially Useful Activities, Change from Baseline (LS Means [SEM])” value ([1]; 32 mg, Week 12) was −0.3 (0.05), the “PSP Total Score, Change from Baseline (LS Means [SEM])” value ([1]; 32 mg, Week 12) was 3.3 (0.71) and the “PSP Total score, LS mean change from Baseline compared with placebo” value ([1]; 32 mg, Week 12) was 0.5. The “Patients with high improvement in PSP Total score (magnitude of change ≥10)” value ([1]; 32 mg) was 26%, the “Patients with moderate improvement in PSP Total score (magnitude of change 7-9)” value ([1]; 32 mg) was 7% and the “Patients with moderate or high improvement in PSP Total score, total” value ([1]; 32 mg) was 33%. The “Patients with 7-Point Improvement in PSP Total Score at Week 12, percent” value ([1]; 32 mg) was 33%, the “Number of Patients with 7-Point improvement in PSP Total Score at Week 12” value ([1]; 32 mg) was 54/166 and the “PSP Total Score change … (SE)” value ([1]; 64 mg, Week 4) was 3.1 (0.52). For the same substance, the “PSP Total Score change … (SD)” value ([1]; 64 mg, Week 4) was 3.1 (8.33), the “PSP Total Score change from Baseline, Median” value ([1]; 64 mg, Week 4) was 1.0 and the “PSP Total Score, Difference (95% CI)” value ([1]; 64 mg, Week 4) was 2.1. The “PSP Total Score change … (SE)” value ([1]; 64 mg, Week 8) was 4.9 (0.61), the “PSP Total Score change … (SD)” value ([1]; 64 mg, Week 8) was 4.8 (6.61) and the “PSP Total Score change from Baseline, Median” value ([1]; 64 mg, Week 8) was 3.0. For the same substance, the “PSP Total Score, Difference (95% CI)” value ([1]; 64 mg, Week 8) was 2.6, the “PSP Total Score change … (SE)” value ([1]; 64 mg, Week 12) was 6.4 (0.69) and the “PSP Total Score change … (SD)” value ([1]; 64 mg, Week 12) was 6.4 (10.32). The “PSP Total Score change from Baseline, Median” value ([1]; 64 mg, Week 12) was 4.5, the “PSP Total Score, Difference (95% CI)” value ([1]; 64 mg, Week 12) was 3.6 and the “PSP Domain Disturbing and Aggressive Behavior, Change from Baseline (LS Means [SEM])” value ([1]; 64 mg, Week 12) was −0.0 (0.04). The “PSP Domain Personal and Social Relationships, Change from Baseline (LS Means [SEM])” value ([1]; 64 mg, Week 12) was −0.4 (0.05), the “PSP Domain Self-Care, Change from Baseline (LS Means [SEM])” value ([1]; 64 mg, Week 12) was −0.3 (0.05) and the “PSP Domain Socially Useful Activities, Change from Baseline (LS Means [SEM])” value ([1]; 64 mg, Week 12) was −0.4 (0.05). For the same substance, the “PSP Total Score, Change from Baseline (LS Means [SEM])” value ([1]; 64 mg, Week 12) was 6.4 (0.69), the “PSP Total score, LS mean change from Baseline compared with placebo” value ([1]; 64 mg, Week 12) was 3.6 and the “Patients with high improvement in PSP Total score (magnitude of change ≥10)” value ([1]; 64 mg) was 36%. The “Patients with moderate improvement in PSP Total score (magnitude of change 7-9)” value ([1]; 64 mg) was 7%, the “Patients with moderate or high improvement in PSP Total score, total” value ([1]; 64 mg) was 43% and the “Patients with 7-Point Improvement in PSP Total Score at Week 12, percent” value ([1]; 64 mg) was 43%. The “Number of Patients with 7-Point improvement in PSP Total Score at Week 12” value ([1]; 64 mg) was 76/176, the “PSP Total Score change … (SD)” value ([1]; Roluperidone Total, Week 4) was 2.3 (8.14) and the “PSP Total Score change from Baseline, Median” value ([1]; Roluperidone Total, Week 4) was 0.0. For the same substance, the “PSP Total Score change … (SD)” value ([1]; Roluperidone Total, Week 8) was 4.2 (6.84), the “PSP Total Score change from Baseline, Median” value ([1]; Roluperidone Total, Week 8) was 3.0 and the “PSP Total Score change … (SD)” value ([1]; Roluperidone Total, Week 12) was 5.0 (10.27). For the same substance, the “PSP Total Score change from Baseline, Median” value ([1]; Roluperidone Total, Week 12) was 3.0 and the Affinity (cholinergic receptors) was “very low or no affinity”.
